Results from US20230085307A1, “PYRIDAZINONE COMPOUND AND HERBICIDE” (NISSAN CHEMICAL CORPORATION, priority 2019, published 2023).

How the values were obtained:
[1] = tested on: green foxtail; assay: Test Example 4: herbicidal effect by soil treatment (Table 19, symbol G); assay type: in vivo, green foxtail (Setaria viridis); details: amount of applied herbicide 320 g/ha
Outline: (§1)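 Herbicidal effect was rated 3 weeks after treatment, using the scoring criteria of an earlier test. The compound, formulated as an emulsion and diluted in water to a set herbicide amount, had been sprayed uniformly on soil over freshly sown seeds. Growth took place in a greenhouse at 25° C. to 30° C.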

[2] = tested on: chickweed; assay: Test Example 4: herbicidal effect by soil treatment (Table 19, symbol P); assay type: in vivo, common chickweed (Stellaria media); details: amount of applied herbicide 320 g/ha
Outline: as §1

[3] = tested on: false cleavers; assay: Test Example 5: herbicidal effect by foliage application, plastic box (Table 20, symbol Q); assay type: in vivo, false cleavers (Galium spurium); details: foliage application, 320 g/ha, three weeks after application
Outline: (§2)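 Foliar spray test: emulsion formulation diluted in water to a set application rate, sprayed onto 14-day-old plants raised in diluvial soil at 25° C to 30° C under glass. Both herbicidal effect and crop effect rated visually three weeks later.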

[4] = tested on: redroot pigweed; assay: Test Example 4: herbicidal effect by soil treatment (Table 19, symbol N); assay type: in vivo, redroot pigweed (Amaranthus retroflexus); details: amount of applied herbicide 320 g/ha
Outline: as §1

[5] = tested on: Italian ryegrass; assay: Test Example 5: herbicidal effect by foliage application, plastic box (Table 20, symbol K); assay type: in vivo, Italian ryegrass (Lolium multiflorum); details: foliage application, 320 g/ha, three weeks after application
Outline: as §2

[6] = tested on: redroot pigweed; assay: Test Example 5: herbicidal effect by foliage application, plastic box (Table 20, symbol N); assay type: in vivo, redroot pigweed (Amaranthus retroflexus); details: foliage application, 320 g/ha, three weeks after application
Outline: as §2

[7] = tested on: windgrass; assay: Test Example 4: herbicidal effect by soil treatment (Table 19, symbol L); assay type: in vivo, windgrass (Apera spica-venti); details: amount of applied herbicide 320 g/ha
Outline: as §1

[8] = tested on: rice flat sedge; assay: Test Example 3: herbicidal effect by foliage application, Wagner pot (Table 18, symbol E); assay type: in vivo, rice flat sedge (Cyperus iria); details: 320 g/ha
Outline: (§3)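 Plants were sown in alluvial soil held under 0.1–0.5 cm standing water and grown 14 days in a greenhouse at 25–30 °C. An emulsifiable formulation, water-diluted to the set dose, was then sprayed onto the foliage, and effects were scored three weeks later using previously defined criteria.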

[9] = tested on: southern crabgrass; assay: Test Example 5: herbicidal effect by foliage application, plastic box (Table 20, symbol F); assay type: in vivo, southern crabgrass (Digitaria ciliaris); details: foliage application, 320 g/ha, three weeks after application
Outline: as §2

[10] = tested on: windgrass; assay: Test Example 5: herbicidal effect by foliage application, plastic box (Table 20, symbol L); assay type: in vivo, windgrass (Apera spica-venti); details: foliage application, 320 g/ha, three weeks after application
Outline: as §2

[11] = tested on: barnyard grass; assay: Test Example 5: herbicidal effect by foliage application, plastic box (Table 20, symbol H); assay type: in vivo, barnyard grass (Echinochloa crus-galli); details: foliage application, 320 g/ha, three weeks after application
Outline: as §2

[12] = tested on: lambsquarters; assay: Test Example 5: herbicidal effect by foliage application, plastic box (Table 20, symbol O); assay type: in vivo, lambsquarters (Chenopodium album); details: foliage application, 320 g/ha, three weeks after application
Outline: as §2

[13] = tested on: green foxtail; assay: Test Example 5: herbicidal effect by foliage application, plastic box (Table 20, symbol G); assay type: in vivo, green foxtail (Setaria viridis); details: foliage application, 320 g/ha, three weeks after application
Outline: as §2

[14] = tested on: chickweed; assay: Test Example 5: herbicidal effect by foliage application, plastic box (Table 20, symbol P); assay type: in vivo, common chickweed (Stellaria media); details: foliage application, 320 g/ha, three weeks after application
Outline: as §2

[15] = tested on: barnyard grass; assay: Test Example 3: herbicidal effect by foliage application, Wagner pot (Table 18, symbol H); assay type: in vivo, barnyard grass (Echinochloa crus-galli); details: 320 g/ha
Outline: as §3

[16] = tested on: persian speedwell; assay: Test Example 5: herbicidal effect by foliage application, plastic box (Table 20, symbol R); assay type: in vivo, Persian speedwell (Veronica persica); details: foliage application, 320 g/ha, three weeks after application
Outline: as §2

[17] = tested on: blackgrass; assay: Test Example 4: herbicidal effect by soil treatment (Table 19, symbol J); assay type: in vivo, blackgrass (Alopecurus myosuroides); details: amount of applied herbicide 320 g/ha
Outline: as §1

[18] = tested on: barnyard grass; assay: Test Example 4: herbicidal effect by soil treatment (Table 19, symbol H); assay type: in vivo, barnyard grass (Echinochloa crus-galli); details: amount of applied herbicide 320 g/ha
Outline: as §1

[19] = tested on: velvetleaf; assay: Test Example 4: herbicidal effect by soil treatment (Table 19, symbol M); assay type: in vivo, velvetleaf (Abutilon theophrasti); details: amount of applied herbicide 320 g/ha
Outline: as §1

[20] = tested on: lambsquarters; assay: Test Example 4: herbicidal effect by soil treatment (Table 19, symbol O); assay type: in vivo, lambsquarters (Chenopodium album); details: amount of applied herbicide 320 g/ha
Outline: as §1

[21] = tested on: persian speedwell; assay: Test Example 4: herbicidal effect by soil treatment (Table 19, symbol R); assay type: in vivo, Persian speedwell (Veronica persica); details: amount of applied herbicide 320 g/ha
Outline: as §1

[22] = tested on: southern crabgrass; assay: Test Example 4: herbicidal effect by soil treatment (Table 19, symbol F); assay type: in vivo, southern crabgrass (Digitaria ciliaris); details: amount of applied herbicide 320 g/ha
Outline: as §1

[23] = tested on: Chinese sprangletop; assay: Test Example 3: herbicidal effect by foliage application, Wagner pot (Table 18, symbol D); assay type: in vivo, chinese sprangletop (Leptochloa chinensis); details: 320 g/ha
Outline: as §3

[24] = tested on: wild oat; assay: Test Example 5: herbicidal effect by foliage application, plastic box (Table 20, symbol I); assay type: in vivo, wild oat (Avena fatua); details: foliage application, 320 g/ha, three weeks after application
Outline: as §2

[25] = tested on: wild oat; assay: Test Example 4: herbicidal effect by soil treatment (Table 19, symbol I); assay type: in vivo, wild oat (Avena fatua); details: amount of applied herbicide 320 g/ha
Outline: as §1

[26] = tested on: Italian ryegrass; assay: Test Example 4: herbicidal effect by soil treatment (Table 19, symbol K); assay type: in vivo, Italian ryegrass (Lolium multiflorum); details: amount of applied herbicide 320 g/ha
Outline: as §1

[27] = tested on: velvetleaf; assay: Test Example 5: herbicidal effect by foliage application, plastic box (Table 20, symbol M); assay type: in vivo, velvetleaf (Abutilon theophrasti); details: foliage application, 320 g/ha, three weeks after application
Outline: as §2

[28] = tested on: blackgrass; assay: Test Example 5: herbicidal effect by foliage application, plastic box (Table 20, symbol J); assay type: in vivo, blackgrass (Alopecurus myosuroides); details: foliage application, 320 g/ha, three weeks after application
Outline: as §2

SMILES: CCCC(=O)Oc1c(C)nn(C)c(=O)c1-c1c(-c2ccc(C)c(C)c2)sc2ccccc12 [1-066]
- herbicidal effect rating, G: green foxtail [1]: 0 (Herbicidal rate of 5% or less (almost no effect))
- herbicidal effect rating, P: chickweed [2]: 2 (Herbicidal rate of 20% or more and less than 40%)
- herbicidal effect grade, Q: false cleavers [3]: 2 (Herbicidal rate of 20% or more and less than 40%)
- herbicidal effect rating, N: redroot pigweed [4]: 0 (Herbicidal rate of 5% or less (almost no effect))
- herbicidal effect grade, K: Italian ryegrass [5]: 0 (Herbicidal rate of 5% or less (almost no effect))
- herbicidal effect grade, N: redroot pigweed [6]: 4 (Herbicidal rate of 70% or more and less than 90%)
- herbicidal effect rating, L: windgrass [7]: 0 (Herbicidal rate of 5% or less (almost no effect))
- herbicidal effect on E (rice flat sedge), rating 0-5 [8]: 5 (Herbicidal rate of 90% or more (almost completely withered))
- herbicidal effect grade, F: southern crabgrass [9]: 2 (Herbicidal rate of 20% or more and less than 40%)
- herbicidal effect grade, L: windgrass [10]: 0 (Herbicidal rate of 5% or less (almost no effect))
- herbicidal effect grade, H: barnyard grass [11]: 2 (Herbicidal rate of 20% or more and less than 40%)
- herbicidal effect grade, O: lambsquarters [12]: 0 (Herbicidal rate of 5% or less (almost no effect))
- herbicidal effect grade, G: green foxtail [13]: 3 (Herbicidal rate of 40% or more and less than 70%)
- herbicidal effect grade, P: chickweed [14]: 5 (Herbicidal rate of 90% or more (almost completely withered))
- herbicidal effect on H (barnyard grass), rating 0-5 [15]: 2 (Herbicidal rate of 20% or more and less than 40%)
- herbicidal effect grade, R: persian speedwell [16]: 5 (Herbicidal rate of 90% or more (almost completely withered))
- herbicidal effect rating, J: blackgrass [17]: 0 (Herbicidal rate of 5% or less (almost no effect))
- herbicidal effect rating, H: barnyard grass [18]: 0 (Herbicidal rate of 5% or less (almost no effect))
- herbicidal effect rating, M: velvetleaf [19]: 0 (Herbicidal rate of 5% or less (almost no effect))
- herbicidal effect rating, O: lambsquarters [20]: 0 (Herbicidal rate of 5% or less (almost no effect))
- herbicidal effect rating, R: persian speedwell [21]: 4 (Herbicidal rate of 70% or more and less than 90%)
- herbicidal effect rating, F: southern crabgrass [22]: 0 (Herbicidal rate of 5% or less (almost no effect))
- herbicidal effect on D (Chinese sprangletop), rating 0-5 [23]: 0 (Herbicidal rate of 5% or less (almost no effect))
- herbicidal effect grade, I: wild oat [24]: 1 (Herbicidal rate of 5% or more and less than 20%)
- herbicidal effect rating, I: wild oat [25]: 0 (Herbicidal rate of 5% or less (almost no effect))
- herbicidal effect rating, K: Italian ryegrass [26]: 0 (Herbicidal rate of 5% or less (almost no effect))
- herbicidal effect grade, M: velvetleaf [27]: 4 (Herbicidal rate of 70% or more and less than 90%)
- herbicidal effect grade, J: blackgrass [28]: 0 (Herbicidal rate of 5% or less (almost no effect))
